Assay results taken from patent US9056814B2, “Polymorphic form of a calcimimetic compound” (LEO PHARMA A/S, priority 2010, dated 2015).

Tests used:
Format in all cases: physicochemical
[1] = Competitive slurrying experiments (XRPD follow-up); details: for Polymorphic stability/conversion in competitive slurrying: MeOH suspension 30 mg/mL, 14 days, 5° C., room temperature and reflux (65° C.)
Description: The suspensions at 5° C. and r.t. were prepared in 4 mL vials with caps and equipped with a small magnetic stirrer bar. The suspensions were stirred at approximately 500 rpm. for two weeks. The suspensions prepared at high temperature were prepared in 10 mL Erlenmeyer flask equipped with a magnetic stirrer bar and reflux condenser.
Samples of the suspensions were taken at time=0, 1 day, 7 days and 14 days and investigated by XRPD.

[2] = Stress stability test for solid state transformation; details: 60° C., 60° C./75% relative humidity and 80° C./75% relative humidity; 4 weeks
Description: Polymorph Form C, Form X and mixtures of the two polymorphic forms C+X have all been tested at different conditions of temperature and relative humidity for signs of solid state transformation. The stress stability test was carried out at three sets of conditions: 60° C., 60° C./75% relative humidity and 80° C./75% relative humidity, and samples were analyzed after 1, 2 and 4 weeks, ie. after 7, 14 and 28 days.
One 1.8 ml amber screw top vial (27267-U, Supelco) containing between 50 and 100 mg {4-[(1R,3S)-3-((R)-1-Naphthalen-1-yl-ethylamino)-cyclopentyl]-phenoxy}-acetic acid was tested per individual set of conditions. The vials to be tested at 60° C. were closed with a PTFE lined black polypropylene solid cap (27416, Supelco) and placed in a thermostated heating cabinet. The vials to be tested at 60° C./75% relative humidity and 80° C./75% relative humidity were placed uncapped in a desiccator containing a saturated NaCl solution. The desiccator was subsequently placed in a thermostated heating cabinet.
The samples were analyzed at 1, 2 and 4 weeks for • 1. Visual appearance • 2. HPLC assay and impurities • 3. Polymorph characterization

[3] = Thermo gravimetric analysis (TGA); details: Graph 4a (Form C sample), ±2° C.
Description: Thermo gravimetric analysis (TGA): TGA experiments were conducted using a Perkin Elmer Pyris 1 TGA instrument. About 10-20 mg of sample was loaded into a ceramic pan for the measurements. The sample temperature was ramped from 25 to 350° C. at 10° C./min. Nitrogen was used as the purge gas at a flow rate of 40 mL/min.

[4] = Transition temperature of the enantiotropic polymorphs from melting enthalpy and melting points; details: estimated from melting enthalpy and melting points of Form C and Form X
Description: From careful measurements of melting enthalpy and melting points of both forms, the transition temperature has been estimated to lie between 120 to 145° C.
Differential scanning calorimetry (DSC): DSC experiments were carried out using a Perkin Elmer DSC8500 system. About 0.5-3 mg of sample was used for the measurements. An aluminium pan was used for the analysis and was sealed by applying pressure by hand and pushing each part of the pan together. The temperature was ramped from −60 to 270° C. at 20° C./min. Nitrogen was used as the purge gas with a flow rate of 20 mL/min.

[5] = Aqueous solubility as a function of pH; details: room temperature, conclusion from Table 6
Description: The aqueous solubility of Form C and Form X was determined as a function of pH at 25° C. in 0.1N HCl (pH 1.0) and in Sorensen phosphate buffers at pH 2.0, 4.0, 6.0 and 8.0. For each pH value two individual determinations were made. Form C or Form X was weighed out (11 mg for pH 1, 4 mg for pH 2-8) in scintillation vials and 4 ml 0.1N HCl or buffer was added. The vials were shaken for 24 hours at 25° C. After 24 hours it was checked that the vial still contained undissolved material. The suspensions were filtered through a 0.45 μm filter, which was first saturated with app. 0.5 ml filtrate. The resulting filtrates were diluted and analyzed by HPLC vs. a standard curve.

Row | 4 week stress stability test, solid state transformation [2] | Temperature below which stable towards degradation (TGA trail) [3] | Transition temperature at which the two polymorphs are equally stable ([1]; lower bound from competitive slurrying of Form C and Form X) | Transition temperature (estimated) [4] [°C] | Polymorphic conversion in competitive slurrying ([1]; competitive slurrying at 110° C.) | Solubility of Form X relative to Form C [5] | Structure (SMILES) | Polymorphic stability/conversion in competitive slurrying [1] | Polymorphic stability/conversion in competitive slurrying ([1]; listed as mixtures of Form X+C)
1 | without any solid state transformation | – | – | – | – | – | C[C@@H](NC1CCC(c2ccc(OCC(=O)O)cc2)C1)c1cccc2ccccc12 (stereo in doubt) [Form C, {4-[(1R,3S)-3-((R)-1-Naphthalen-1-yl-ethylamino)-cyclopentyl]-phenoxy}-acetic acid] | stable at all three temperatures | –
2 | without any solid state transformation | below 255 °C | above 110 °C | 120 to 145 | – | – | C[C@@H](NC1CCC(c2ccc(OCC(=O)O)cc2)C1)c1cccc2ccccc12 (stereo in doubt) [{4-[(1R,3S)-3-((R)-1-Naphthalen-1-yl-ethylamino)-cyclopentyl]-phenoxy}-acetic acid] | – | convert to pure Form C at all three temperatures
3 | without any solid state transformation | – | – | – | transformation of Form X to Form C | higher compared to Form C | C[C@@H](NC1CCC(c2ccc(OCC(=O)O)cc2)C1)c1cccc2ccccc12 (stereo in doubt) [Form X, {4-[(1R,3S)-3-((R)-1-Naphthalen-1-yl-ethylamino)-cyclopentyl]-phenoxy}-acetic acid] | convert to pure Form C at all three temperatures | –
